Measurements published in US12037375B2, “Protein variant and composition for treating neurodegenerative disease using the same” (KOREA UNIVERSITY RESEARCH AND BUSINESS FOUNDATION, priority 2021, dated 2024).

Tested on: SH-SY-5Y neuroblastoma cells
Experiment: Cell viability by MTT assay
Assay type: cell-based
Settings: FIG. 4
Description: SH-SY-5Y neuroblastoma cells were purchased from the Korean Cell Line Bank (Seoul, South Korea) and incubated in a 1:1 mixture of Dulbecco's modified eagle medium/F-12 nutrient mixture ham (DMEM/F-12; WelGENE) supplemented with 10% fetal bovine serum (FBS; Capricorn Scientific GmbH, Ebsdorfergrund, Germany) and 1% antibiotic (10,000 U/mL penicillin G, 10,000 μg/mL streptomycin and 25 μg/mL amphotericin B; Hyclone, Logan, UT, USA). The antibiotic was sterilized through a 0.2 μm filter before use and the cells were incubated at 37° C. under humid conditions including 5% CO2.
Specifically, 15,000 cells were grown in each well of a 96-well plate and incubated for 24 hours. […] Then, the MTT solution was added to the medium and incubated at 37° C. for 3 hours to form the MTT-formazan product. The amount of the product was quantified as the extent of absorption at a wavelength of 540 nm.
Each test was conducted on three samples at a time and the entire test was repeated three times to ensure reproducibility.
Specifically, 15,000 cultured neuroblastoma were added with each of 1 uM of a monomer protein and 1 uM of a fibrous protein, and incubated for 2 days, and then the change in cytotoxicity was measured using MTT reagent.

CC[C@H](C)[C@H](NC(=O)[C@H](C)NC(=O)CNC(=O)[C@H](CCCCN)NC(=O)[C@H](CC(N)=O)NC(=O)[C@H](CO)NC(=O)CNC(=O)[C@@H](NC(=O)[C@H](CC(=O)O)NC(=O)[C@H](CCC(=O)O)NC(=O)[C@H](C)NC(=O)[C@H](Cc1ccccc1)NC(=O)[C@H](CC(N)=O)NC(=O)[C@@H](NC(=O)[C@H](CC(C)C)NC(=O)[C@H](CCCCN)NC(=O)[C@H](CCC(N)=O)NC(=O)[C@H](Cc1c[nH]cn1)NC(=O)[C@H](Cc1c[nH]cn1)NC(=O)[C@@H](NC(=O)[C@H](CCC(=O)O)NC(=O)[C@H](Cc1ccc(O)cc1)NC(=O)CNC(=O)[C@H](CO)NC(=O)[C@H](CC(=O)O)NC(=O)[C@H](Cc1c[nH]cn1)NC(=O)[C@H](CCCNC(=N)N)NC(=O)[C@H](Cc1ccccc1)NC(=O)[C@H](CCC(=O)O)NC(=O)[C@H](C)NC(=O)[C@@H](N)CC(=O)O)C(C)C)C(C)C)C(C)C)C(=O)N[C@@H](CC(N)=O)C(=O)NCC(=O)N[C@@H](CC(N)=O)C(=O)N[C@@H](CCSC)C(=O)N[C@H](C(=O)NCC(=O)NCC(=O)N[C@H](C(=O)N[C@H](C(=O)N[C@H](C(=O)N[C@@H](CC(N)=O)C(=O)O)[C@@H](C)CC)C(C)C)C(C)C)C(C)C
cytotoxicity: reduced cytotoxicity
